EP3928779A1 (Chugai Seiyaku Kabushiki Kaisha, priority 2014, dated 2016)

Experiments:
[1] = test system: adenine-induced renal failure rat; test: Suppressive effect on rise in serum phosphorus concentration of adenine-induced renal failure rat (0.1% in feed, 3 days); assay type: in vivo; conditions: feed or water, 72 h, adenine-induced renal failure Wistar male rat, test compound 0.1% of mass concentration in feed for 3 days, Fiske-Subbarow method, read-out: rate (%) of suppression of a rise in serum phosphorus concentration
Description: Adenine was forcedly administered orally to each Wistar male rat (7-8 weeks old) to impair renal functions and thereby prepare a hyperphosphatemia model ([…], Nagano N, Burke SK, Fukushima N. Sevelamer hydrochloride prevents ectopic calcification and renal osteodystrophy in chronic renal failure rats. Kidney Int. 2003 Aug; 64 (2): 441-50). Each test compound was mixed at a ratio of 0.1% of mass concentration with feed. The animal was fed with a given amount of the feed for 3 days. A group given feed non-supplemented with a test compound was used as a reference pathological group, and an adenine-unadministered group given feed non-supplemented with a test compound was used as a normal group. 3 days after the start of administration of the test compound, blood was collected from the jugular vein, and serum was collected. Serum phosphorus concentrations were measured by the Fiske-Subbarow method. The rate of suppression of a rise in serum phosphorus concentration was determined according to the following expression: Rate (%) of suppression of a rise in serum phosphorus concentration = (1-[(Serum phosphorus concentration of the test compound-treated pathological group)-(Serum phosphorus concentration of the normal group)]/[(Serum phosphorus concentration of the reference pathological group)-(Serum phosphorus concentration of the normal group)]) × 100 [formula] As a result, each test compound was confirmed to have a suppressive effect on a rise in serum phosphorus concentration. […]

[2] = test system: rat small-intestinal brush border membrane vesicles; test: Inhibitory effect on 33PO4 uptake into rat small-intestinal brush border membrane vesicles (rapid filtration method); assay type: biochemical; conditions: 33PO4 uptake into rat small-intestinal BBMVs; test compound 1 µM; reacted for 60 seconds
Outline: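 Uptake of ^33PO4 was measured by rapid filtration and liquid scintillation counting of filter-retained vesicles, after quenching with ice-cold 110 mM NaCl/1 mM KH2PO4/10 mM HEPES pH 7.5. Vesicles were brush border membranes from the upper small intestine of female Wistar rats aged 4–5 weeks.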

Structure (SMILES): CSc1ccc(-c2cc(Cl)ccc2NC(=O)C2=C(O)[C@H](C(C)(C)C)N(C)N(Cc3ccc(OCCN4CCOCC4)c(F)c3F)C2=O)cn1 [Example 269, (3S)-3-tert-Butyl-N-[4-chloro-2-(6-methylsulfanylpyridin-3-yl)phenyl]-1-[[2,3-difluoro-4-(2-morpholin-4-ylethoxy)phenyl]methyl]-4-hydroxy-2-methyl-6-oxo-3H-pyridazine-5-carboxamide]
- inhibition in vivo at 0.1 % in feed [1]: 15%
- Rate of uptake inhibition (%) (1 µM) [2]: 80%

Structure (SMILES): Cc1c(C#N)ncnc1-c1cc(C(F)(F)F)ccc1NC(=O)C1=C(O)[C@H](C(C)(C)C)N(C)N(Cc2ccc(OCCN3CCOCC3)c(F)c2F)C1=O [Example 270, (3S)-3-tert-Butyl-N-[2-(6-cyano-5-methylpyrimidin-4-yl)-4-(trifluoromethyl)phenyl]-1-[[2,3-difluoro-4-(2-morpholin-4-ylethoxy)phenyl]methyl]-4-hydroxy-2-methyl-6-oxo-3H-pyridazine-5-carboxamide]
- inhibition in vivo at 0.1 % in feed [1]: 20%
- Rate of uptake inhibition (%) (1 µM) [2]: 75%

Structure (SMILES): CN1[C@@H](C(C)(C)C)C(O)=C(C(=O)Nc2ccc(C(F)(F)F)cc2-c2cc(C(F)(F)F)ncn2)C(=O)N1Cc1ccc(OCCN2CCOCC2)c(F)c1F [Example 264, (3S)-3-tert-Butyl-1-[[2,3-difluoro-4-(2-morpholin-4-ylethoxy)phenyl]methyl]-4-hydroxy-2-methyl-6-oxo-N-[4-(trifluoromethyl)-2-[6-(trifluoromethyl)pyrimidin-4-yl]phenyl]-3H-pyridazine-5-carboxamide]
- inhibition in vivo at 0.1 % in feed [1]: 15%
- Rate of uptake inhibition (%) (1 µM) [2]: 48%

Structure (SMILES): C[C@]12CCCN1N(Cc1ccc(OCCCCCCOC[C@H](O)CO)c(F)c1F)C(=O)C(C(=O)Nc1cnc(C(F)(F)F)nc1-c1ccc(C(F)(F)F)nc1)=C2O [Example 156, (4aR)-1-[[4-[6-[(2R)-2,3-Dihydroxypropoxy]hexoxy]-2,3-difluorophenyl]methyl]-4-hydroxy-4a-methyl-2-oxo-N-[2-(trifluoromethyl)-4-[6-(trifluoromethyl)pyridin-3-yl]pyrimidin-5-yl]-6,7-dihydro-5H-pyrrolo[1,2-b]pyridazine-3-carboxamide]
- inhibition in vivo at 0.1 % in feed [1]: 21%
- Rate of uptake inhibition (%) (1 µM) [2]: 59%

Structure (SMILES): C[C@]12CCCN1N(Cc1cccc(Cl)c1F)C(=O)C(C(=O)Nc1cc(F)c(Br)c(F)c1)=C2O [Example 196, (4aR)-N-(4-Bromo-3,5-difluorophenyl)-1-[(3-chloro-2-fluorophenyl)methyl]-4-hydroxy-4a-methyl-2-oxo-6,7-dihydro-5H-pyrrolo[1,2-b]pyridazine-3-carboxamide]
- inhibition in vivo at 0.1 % in feed [1]: 35%
- Rate of uptake inhibition (%) (1 µM) [2]: 90%

Structure (SMILES): CN1[C@@H](C(C)(C)C)C(O)=C(C(=O)Nc2ccc(Cl)cc2-c2ccc(C(F)(F)F)nc2)C(=O)N1Cc1ccc(OCCN2CCOCC2)c(F)c1F [Example 267, (3S)-3-tert-Butyl-N-[4-chloro-2-[6-(trifluoromethyl)pyridin-3-yl]phenyl]-1-[[2,3-difluoro-4-(2-morpholin-4-ylethoxy)phenyl]methyl]-4-hydroxy-2-methyl-6-oxo-3H-pyridazine-5-carboxamide]
- inhibition in vivo at 0.1 % in feed [1]: 18%
- Rate of uptake inhibition (%) (1 µM) [2]: 71%

Structure (SMILES): C[C@]12CCCN1N(Cc1ccc(OCCCOC[C@H](O)CO)c(F)c1F)C(=O)C(C(=O)Nc1ccc(C(F)(F)F)cc1-c1ccc(C(F)(F)F)nc1)=C2O [Example 147, (4aR)-1-[[4-[3-[(2R)-2,3-Dihydroxypropoxy]propoxy]-2,3-difluorophenyl]methyl]-4-hydroxy-4a-methyl-2-oxo-N-[4-(trifluoromethyl)-2-[6-(trifluoromethyl)pyridin-3-yl]phenyl]-6,7-dihydro-5H-pyrrolo[1,2-b]pyridazine-3-carboxamide]
- inhibition in vivo at 0.1 % in feed [1]: 35%
- Rate of uptake inhibition (%) (1 µM) [2]: 57%

Structure (SMILES): CN1N(Cc2ccc(OCCN3CCOCC3)c(F)c2F)C(=O)C(C(=O)Nc2ccc(C(F)(F)F)cc2-c2cc(C(F)(F)F)ncn2)=C(O)C12CCC2 [Example 317, 6-[[2,3-Difluoro-4-(2-morpholin-4-ylethoxy)phenyl]methyl]-9-hydroxy-5-methyl-7-oxo-N-[4-(trifluoromethyl)-2-[6-(trifluoromethyl)pyrimidin-4-yl]phenyl]-5,6-diazaspiro[3.5]non-8-ene-8-carboxamide]
- inhibition in vivo at 0.1 % in feed [1]: 22%
- Rate of uptake inhibition (%) (1 µM) [2]: 57%

Structure (SMILES): COC[C@@H]1CCCN1CCOc1ccc(CN2C(=O)C(C(=O)Nc3ccc(C(F)(F)F)cc3-c3cc(C(F)(F)F)ncn3)=C(O)C3(CCC3)N2C)c(F)c1F [Example 345, 6-[[2,3-Difluoro-4-[2-[(2S)-2-(methoxymethyl)pyrrolidin-1-yl]ethoxy]phenyl]methyl]-9-hydroxy-5-methyl-7-oxo-N-[4-(trifluoromethyl)-2-[6-(trifluoromethyl)pyrimidin-4-yl]phenyl]-5,6-diazaspiro[3.5]non-8-ene-8-carboxamide]
- inhibition in vivo at 0.1 % in feed [1]: 19%
- Rate of uptake inhibition (%) (1 µM) [2]: 73%

Structure (SMILES): C[C@]12CCCN1N(Cc1ccc(OCCCCOC[C@H](O)CO)c(F)c1F)C(=O)C(C(=O)Nc1ccc(C(F)(F)F)cc1-c1cc(C(F)(F)F)ncn1)=C2O [Example 152, (4aR)-1-[[4-[4-[(2R)-2,3-Dihydroxypropoxy]butoxy]-2,3-difluorophenyl]methyl]-4-hydroxy-4a-methyl-2-oxo-N-[4-(trifluoromethyl)-2-[6-(trifluoromethyl)pyrimidin-4-yl]phenyl]-6,7-dihydro-5H-pyrrolo[1,2-b]pyridazine-3-carboxamide]
- inhibition in vivo at 0.1 % in feed [1]: 26%
- Rate of uptake inhibition (%) (1 µM) [2]: 54%

Structure (SMILES): C[C@]12CCCN1N(Cc1ccc(C#CCCCC(=O)O)c(F)c1F)C(=O)C(C(=O)Nc1ccc(C(F)(F)F)cc1-c1cc(C(F)(F)F)ncn1)=C2O [Example 129, 6-[4-[[(4aR)-4-Hydroxy-4a-methyl-2-oxo-3-[[4-(trifluoromethyl)-2-[6-(trifluoromethyl)pyrimidin-4-yl]phenyl]carbamoyl]-6,7-dihydro-5H-pyrrolo[1,2-b]pyridazin-1-yl]methyl]-2,3-difluorophenyl]hex-5-ynoic acid]
- inhibition in vivo at 0.1 % in feed [1]: 17%
- Rate of uptake inhibition (%) (1 µM) [2]: 63%

Structure (SMILES): C[C@]12CCCN1N(Cc1ccc(OCCN3CCOCC3)c(F)c1F)C(=O)C(C(=O)Nc1ccc(C(F)(F)F)cc1-c1cc(C(F)(F)F)ncn1)=C2O [Example 157, (4aR)-1-[[2,3-Difluoro-4-(2-morpholin-4-ylethoxy)phenyl]methyl]-4-hydroxy-4a-methyl-2-oxo-N-[4-(trifluoromethyl)-2-[6-(trifluoromethyl)pyrimidin-4-yl]phenyl]-6,7-dihydro-5H-pyrrolo[1,2-b]pyridazine-3-carboxamide]
- inhibition in vivo at 0.1 % in feed [1]: 30%
- Rate of uptake inhibition (%) (1 µM) [2]: 89%

Structure (SMILES): C[C@]12CCCN1N(Cc1ccc(CN3CCOCC3)c(F)c1F)C(=O)C(C(=O)Nc1ccc(C(F)(F)F)cc1-c1ccc(C(F)(F)F)nc1)=C2O.Cl [Example 164, (4aR)-1-[[2,3-Difluoro-4-(morpholin-4-ylmethyl)phenyl]methyl]-4-hydroxy-4a-methyl-2-oxo-N-[4-(trifluoromethyl)-2-[6-(trifluoromethyl)pyridin-3-yl]phenyl]-6,7-dihydro-5H-pyrrolo[1,2-b]pyridazine-3-carboxamide; hydrochloride]
- inhibition in vivo at 0.1 % in feed [1]: 14%
- Rate of uptake inhibition (%) (1 µM) [2]: 64%
